For orientation: bioavailability means the share of a dose that reaches the circulation, judged against a reference dose that is usually intravenous. A lower bioavailability goes with poor availability. Broadly, the AUC is the area under the concentration-time curve, a measure of exposure. One may read the IC50 as the concentration needed to halve the response being measured. A higher IC50 goes with weaker potency.

A short description of data set [1]: Oral bioavailability in ICR mouse at […] by LC-MS/MS analysis. Particulars: in vivo, dose 0.25 mg/kg. It counts as ADME, organism-based.
Data set [2] in a line: AUC in rat at 30 mg/kg, po. The class given is ADME, organism-based. Particulars: in vivo.
Data set [3] is described as follows: Oral bioavailability in rat at 2 mg/kg by LC-MS/MS analysis. The class given is ADME, organism-based. The following applies: in vivo.
Data set [4] concerns the target Mitogen-activated protein kinase kinase kinase 7 (Homo sapiens, UniProt O43318). Kind of data set: Inhibition of TAK1 (unknown origin).
Data set [5] addresses Mitogen-activated protein kinase 3 (Homo sapiens, UniProt P27361). Briefly: Inhibition of ERK1 (unknown origin).

Chain of Mitogen-activated protein kinase 3 (P27361 whole entry): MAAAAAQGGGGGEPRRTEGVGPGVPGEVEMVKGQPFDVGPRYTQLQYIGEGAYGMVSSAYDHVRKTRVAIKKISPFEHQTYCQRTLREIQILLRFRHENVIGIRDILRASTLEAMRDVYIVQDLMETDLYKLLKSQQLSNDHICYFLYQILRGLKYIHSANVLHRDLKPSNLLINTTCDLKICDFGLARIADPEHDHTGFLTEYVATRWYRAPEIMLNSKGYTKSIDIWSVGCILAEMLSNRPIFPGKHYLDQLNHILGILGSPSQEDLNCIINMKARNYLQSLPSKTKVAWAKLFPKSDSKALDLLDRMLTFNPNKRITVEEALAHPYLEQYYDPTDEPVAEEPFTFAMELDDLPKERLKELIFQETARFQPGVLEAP
Chain of Mitogen-activated protein kinase kinase kinase 7 (O43318 whole entry): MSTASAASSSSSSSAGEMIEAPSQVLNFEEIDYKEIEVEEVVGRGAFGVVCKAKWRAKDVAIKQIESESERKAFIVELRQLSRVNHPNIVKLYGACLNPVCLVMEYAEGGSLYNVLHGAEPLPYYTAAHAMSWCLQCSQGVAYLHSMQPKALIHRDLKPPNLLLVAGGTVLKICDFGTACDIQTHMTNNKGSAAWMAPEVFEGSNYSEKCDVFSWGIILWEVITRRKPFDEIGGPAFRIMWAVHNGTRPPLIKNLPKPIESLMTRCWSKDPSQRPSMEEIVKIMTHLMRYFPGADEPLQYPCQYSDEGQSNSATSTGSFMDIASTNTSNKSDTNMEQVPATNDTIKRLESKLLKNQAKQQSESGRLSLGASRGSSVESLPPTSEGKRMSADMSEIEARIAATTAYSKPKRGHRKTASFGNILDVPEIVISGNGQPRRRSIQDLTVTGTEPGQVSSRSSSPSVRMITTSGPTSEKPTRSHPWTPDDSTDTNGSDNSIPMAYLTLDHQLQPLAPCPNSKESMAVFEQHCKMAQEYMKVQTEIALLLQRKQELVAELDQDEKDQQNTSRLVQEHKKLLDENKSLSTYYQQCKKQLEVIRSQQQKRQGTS

Take `Cc1c(F)cc(C(=O)NC2CC2)cc1-c1ccc(C(=O)NCC(C)(C)C)cn1` [LOSMAPIMOD]: the bioavailability in data set [1] is 51%. In data set [2], this compound came in with an area under the curve (AUC) of 220 ng·h/mL.

`CCc1nc(-c2cccc(C)c2)c(-c2ccnc(NC(=O)c3ccccc3)c2)s1` [TAK-715] yielded a bioavailability in data set [3] of 21.1%. The concentration for half-maximal inhibition (IC50) in data set [4] and in data set [5] was greater than 10 µM in each case.

The values above are taken from ChEMBL document CHEMBL6083249, “The journey of p38 MAP kinase inhibitors: From bench to bedside in treating inflammatory diseases” (Eur J Med Chem, 2024).
